Reference: patent US8597646B2, “Methods and compositons featuring TGF-beta antagonists for the treatment of marfan syndrome and associated disorders” (The Johns Hopkins University, priority 2005, dated 2013)
“Also recorded” adds a separate entry of the source.

Legend:
Format in all cases: in vivo, mouse
Fbn1C1039G/+ mice [1] = assay: Prenatal treatment with losartan and propranolol, aorta of Fbn1C1039G/+ mice; settings: prenatal start
Description: Treatment of the mothers continued throughout lactation and was maintained in the pups after weaning. Mice were killed at 10 months of age. […] The average aortic wall thickness for untreated wild-type animals was smaller than that in placebo-treated Fbn1C1039G/+ mice (P<0.0001) but was indistinguishable from that in losartan-treated Fbn1C1039G/+ mice (P=0.24, FIG. 20E).

Fbn1C1039G/+ mice [2] = assay: Postnatal treatment with losartan and propranolol, aorta of Fbn1C1039G/+ mice
Description: However, before treatment, the aortic diameter in Fbn1C1039G/+ mice was always greater than in untreated wild-type mice (1.59±0.11 mm; P<0.002).
Three independent aortic root measurements were obtained for each mouse every 2 months during the 6 months of treatment. Mice were killed at 8 months of age. […] The aortic root growth rate over this period was less in the wild-type mice than in the placebo-treated Fbn1C1039G/+ mice (P<0.0001, FIG. 21I).

C1039G/+ mice [3] = assay: Aortic root growth by echocardiography in C1039G/+ mice, 4 months of treatment
Protocol: Markers of TGFβ antagonism have included reduced plasma levels of free TGFβ, reduced intracellular initiation of the TGFβ signaling cascade, and reduced tissue expression of TGFβ-responsive genes. […] Three independent measurements of the aortic root were made from the long axis echo view in systole at each of 3 time points (baseline, 2 and 4 months of treatment; FIG. 8A). All analyses were performed blinded to genotype and treatment arm. […] This represents the first therapeutic strategy for MFS that derives from interrogation of disease pathogenesis and the first possibility for primary prevention of disease manifestations.

C1039G/+ mice [4] = assay: Aortic wall histology (elastic matrix architecture) in treated C1039G/+ mice; settings: 4 months of treatment

## CC(C)NCC(O)COc1cccc2ccccc12 (stereo not drawn) [propranolol]
Fbn1C1039G/+ mice [1]; 10 months
  Aortic dilatation: marked aortic dilatation
Fbn1C1039G/+ mice [1]; 10 months of treatment
  Aortic wall architecture score: not influenced
  Average aortic wall thickness: indistinguishable from that in the placebo group
Fbn1C1039G/+ mice [1]; drinking water, killed at 10 months
  Elastic fiber fragmentation / architecture (VVG staining): observed; also recorded: Marked elastic fiber disruption
Fbn1C1039G/+ mice [2]; 6 months of treatment
  Aortic wall / elastic fiber architecture: no discernable effect
  Aortic wall thickness: no discernable effect
Fbn1C1039G/+ mice [2]; during 6 months of treatment
  Aortic root growth rate: slower rate of aortic root growth than did placebo-treated animals; also recorded: less than that with placebo, yet remains greater than that seen in wild-type mice
Fbn1C1039G/+ mice [2]; from 7 weeks of age, 6 months
  TGF-β signaling in aortic media (nuclear pSmad2): Marked increase in nuclear staining for pSmad2
Fbn1C1039G/+ mice [2]; from 7 weeks of age, 6 months, drinking water
  Elastic fiber fragmentation (VVG staining): diffuse fragmentation of elastic fibers
C1039G/+ mice [3]; C1039G/+ mice from 7 weeks of age, losartan 50 mg/kg or propranolol 40 mg/kg, aortic root, echo, placebo 0.44±0.09
  Aortic growth during the 4 months of treatment: 0.22±0.06 mm
C1039G/+ mice [3]; propranolol dose with the same antihypertensive effect as losartan
  Improvement in any parameter: little improvement
C1039G/+ mice [4]
  Elastic matrix architecture / histologic parameters of the aorta: did not improve
